Measured values published in patent US6248768A, “Benzimidazole derivatives and pharmacologically acceptable salts thereof” (Taiho Pharmaceutical Co., Ltd., priority 1997, dated 2001).

How the values were obtained:
IL-4 production = settings: in words, background art; cited from earlier work
PDE(IV) = assay: Phosphodiesterase IV (PDE (IV)) Inhibitory Activity; assay type: biochemical; settings: rat brain PDE(IV); 3H-cAMP 1 μM; 37° C., 10 minutes; read-out: PDE(IV) inhibition IC50
Description: Phosphodiesterase IV (PDE (IV)) Inhibitory Activity
Purification of PDE (IV) and measurement of its activity were carried out by partially modifying the method of Saeki et al. (Biochem. Pharmacol., Vol. 46, 833-839, 1993). That is, PDE(IV) was purified by centrifuging rat brain homogenate at 105,000×g, applying the resulting supernatant to a Q-Sepharose column and then eluting the protein with a density gradient of 0 to 0.5 M NaCl.
Activity of PDE(IV) was measured by the following two step procedure. Using 3H-cAMP (1 μM in final concentration) as the substrate, the reaction was carried out at 37° C. for 10 minutes in a reaction solution containing tris(hydroxyl)aminomethane (50 mM, pH B8.0), EGTA (0.1 mM) and MgCl2 (0.1 mM) and then the reaction was stopped by incubating the reaction solution at 95° C. for 5 minutes. The thus formed 5'-AMP was hydrolyzed with 5'-nucleotidase, and AG1 X-8 resin was added thereto to effect adsorption of unreacted CAMP. After centrifugation, 3H-adenosinewas counted using a scintillation counter.

[1] = system: IL-4 production by CD4^+ T cells; assay: Interleukin-4 (IL-4) Production Inhibitory Activity; assay type: cell-based; settings: 24 h; mouse spleen CD4^+ T cells; IL-4 in supernatant by ELISA after 1 day; read-out: IL-4 production inhibition IC50
Description: Interleukin-4 (IL-4) Production Inhibitory Activity
This test was carried out in accordance with the method of Shelby et al. (J. Allergy Clin. Immunol., Vol. 100, No. 4, 511-519 (1997)). That is, CD4^+ T cells were purified from mouse spleen cells and suspended in 10% FCS-containing RPMI 1640 culture medium, and the cell suspension was inoculated into wells of a 24 well culture plate, which had been coated with anti-rat IgG, at a density of 3×10^6 cells per well. Anti-mouse CD3 antibody and anti-mouse CD28 antibody were added thereto, and the cells were cultured at 37° C. for 3 days in an atmosphere of 5% CO2. The thus grown cells were recovered, washed three times with HBSS (Hank's balanced salt solution) and then suspended in 10% FCS-containing RPMI 1640 culture medium. The cell suspension was inoculated into wells of a 24 well culture plate at a density of 1×10^6 cells per well, mixed with IL-2 and cultured for additional 3 days. The resulting cells were recovered, washed three times with HBSS and then suspended in 10% FCS-containing RPMI 1640 culture medium. The cell suspension was inoculated into wells of a 24 well culture plate, which had been coated with anti-rat IgG, at a density of 2×10^6 cells per well, anti-mouse CD3 antibody and anti-mouse CD28 antibody were added thereto, and the cells were again cultured for 1 day. The culture supernatant was recovered from each well to measure the amount of produced IL-4 by ELISA. Each drug to be tested was treated at the time of the second addition of anti-mouse CD3 antibody and anti-mouse CD28 antibody to calculate its inhibition percentage based on the control IL-4 production by the addition of the solvent alone, and IC50 (50% inhibition concentration) of each drug to be tested was calculated based on the regression line.

[2] = system: Airway reactivity acceleration (antigen-induced); assay: Antigen-Induced Airway Reactivity Acceleration Inhibitory Activity in Mice [Test on Chronic Inflammation]; assay type: in vivo, BALB/c mice; settings: oral, once a day for 10 days, acetylcholine 30 μg/animal i.v.
Description: Antigen-Induced Airway Reactivity Acceleration Inhibitory Activity in Mice [Test on Chronic Inflammation]
The model for this test was prepared out in accordance with the method of Nagai et al. (Life Sciences, Vol. 54, pp. 471-475, 1994). Each of BALB/c mice was immunized by the intraperitoneal injection of 1 μg of egg albumin which had been adsorbed to 1 mg of ALUM. After 14 days of the immunization, each animal was exposed to 1% egg albumin solution using an ultrasonic nebulizer, and this treatment was repeated three times at 3 day intervals. After 24 hours of the final exposure, the airway contraction reaction against intravenously injected acetylcholine (30 μg/animal) was measured as overflow volume (×0.01 ml) by the modified method of Konzett and Rossler under pentobarbital anesthesia. Each of the drugs to be tested (compounds 1 and 2) was suspended in 0.5% HPMC solution and orally administered once a day for a total of 10 days starting from the day before the antigen exposure until the day of final exposure. Accelerated quantity of the airway contraction reaction caused by the antigen exposure was calculated by subtracting the contraction reaction against intravenously injected acetylcholine in the case of the same treatment of normal mice, and the airway reactivity acceleration inhibition ratio (%) of the drugs to be tested was calculated based on the solvent-administered (control) group.

[3] = system: Mouse ear edema reaction (egg albumin-induced); assay: Ear Edema Reaction Inhibitory Activity in Mice; assay type: in vivo, BALB/c mice; settings: oral, 1 hour before induction, ear thickness 1 hour after induction
Description: Ear Edema Reaction Inhibitory Activity in Mice [Test Inflammation]
This test was test was carried out in accordance with the method of Sawada et al. (Clin. Exp. Allergy, Vol. 27, pp. 225-231, 1996). Each of BALB/c mice was immunized by the intraperitoneal injection of 1 μg of egg albumin which had been adsorbed to 1 mg of ALUM. After 14 days of the immunization, ear edema reaction was induced by intracutaneous injection of 1 μg of egg albumin into mouse earlobe. Ear edema (×10^2 mm) was calculated by measuring thickness of the ear before and 1 hour after the induction with a dial thickness gage (Peacok). Each of the drugs to be tested (compounds 1 and 2) was suspended in 0.5% hydropropylmethylcellulose (HPMC) solution and orally administered 1 hour before the reaction induction. Ear edema caused by the antigen was calculated by subtracting ear edema after respective time of induction in the case of the same treatment of normal mice, and the ear edema inhibition ratio (%) of the drugs to be tested was calculated based on the solvent-administered (control) group.

Row | SMILES | IC50 (PDE(IV)) | IC50 [1] | Airway reactivity acceleration inhibition ([2]; 30 mg/kg) | Mouse ear edema reaction inhibition ([3]; 30 mg/kg) | also measured
1 | COc1ccc(/C(C)=N/OC(N)=O)cc1OC1CCCC1 [PDA-641] | – | – | – | – | IL-4 production inhibitory activity (IL-4 production): weak
2 | COc1ccc(-c2nc3cc(-n4cncn4)ccc3[nH]2)cc1OC1C=CCCCC1 (stereo not drawn) [Compound 25] | 0.73 µM | 2.8 µM | – | – | –
3 | COc1ccc(-c2nc3cc(-n4cncn4)ccc3[nH]2)c(OC)c1 [Control compound 2] | – | – | 30% | 17% | –
4 | COc1ccc(-c2nc3cc(C(=O)O)ccc3[nH]2)cc1OC1Cc2ccccc2C1 [Control compound 5] | – | – | -3% | – | Mouse ear edema reaction inhibition ([3]; 100 mg/kg): 0%
5 | COc1ccc(-c2nc3ccc(-n4cncn4)cc3[nH]2)cc1OC(C)C [Compound 1, 2-(3-isopropoxy-4-methoxyphenyl)-5-(1,2,4-triazol-1-yl)benzimidazole] | 0.02 µM | 4.3 µM | – | 60% | Airway reactivity acceleration inhibition ([2]; 10 mg/kg): 58%
6 | COc1ccc(-c2nc3cc(-n4cncn4)ccc3[nH]2)cc1OC/C=C/c1ccccc1 [Compound 18] | 0.051 µM | 5.1 µM | – | – | –
7 | COc1ccc(-c2nc3cc(C(=O)O)ccc3[nH]2)cc1OC1CCCC1 [Control compound 4] | – | – | -17% | – | Mouse ear edema reaction inhibition ([3]; 100 mg/kg): 0%
8 | COc1ccc(-c2nc3cc(-n4cncn4)ccc3[nH]2)cc1OCC1CC1 [Compound 11] | 1.6 µM | 5.5 µM | – | – | –
9 | COc1ccc(-c2nc3ccc(-n4cncn4)cc3[nH]2)cc1OC1C=CCCC1 (stereo not drawn) [Compound 14, 2-[3-(2-cyclohexenyloxy)-4-methoxyphenyl]-5-(1,2,4-triazol-1-yl)benzimidazole] | 0.54 µM | 6.1 µM | – | – | –
10 | COc1ccc(-c2nc3ccc(-n4cncn4)cc3[nH]2)cc1OC1CCCC1 [Compound 2, 2-(3-cyclopentyloxy-4-methoxyphenyl)-5-(1,2,4-triazol-1-yl)benzimidazole] | – | – | 47% | 78% | –
